# Earlier results, collected in patent publication US8883846B2, “Synthesis of bicyclic compounds and method for their use as therapeutic agents” (priority 2010, dated 2014).
# Test system: influenza A H1N1 viruses, neuraminidase mutation Q136K
# Details: Australian and South East Asian influenza A H1N1 viruses; cited from earlier work
row,SMILES,reduction in susceptibility [fold]
1,CCC(CC)[C@H](NC(C)=O)[C@@H]1[C@H](O)[C@@H](C(=O)O)C[C@H]1N=C(N)N [peramivir],70
2,CC(=O)N[C@H]1[C@H]([C@H](O)[C@H](O)CO)OC(C(=O)O)=C[C@@H]1N=C(N)N [zanamivir],300
